Patent publication US8614237B2, “Benzofuran-4,5-diones as selective peptide deformylase inhibitors” (Sloan-Kettering Institute for Cancer Research, priority 2009, dated 2013)
Each block holds one compound with its values, some of them ahead of it.

Legend:
[1] = target: T1, HsPDF (Homo sapiens, UniProt Q9HBH1); assay: FLUO functional assay (fluorescamine, substrate fMAHA); type: biochemical; details: 0.5 μM HsPDF, upper limit 10 μM compound
T1 construct: A 63 amino acid N-terminally truncated human peptide deformylase (HsPDF); 6His (C); made in house; host or cells: E. coli BL21 (DE3), co-transformed with the GroES/EL chaperone plasmid
T1 sequence (Q9HBH1 64-243 limits assumed): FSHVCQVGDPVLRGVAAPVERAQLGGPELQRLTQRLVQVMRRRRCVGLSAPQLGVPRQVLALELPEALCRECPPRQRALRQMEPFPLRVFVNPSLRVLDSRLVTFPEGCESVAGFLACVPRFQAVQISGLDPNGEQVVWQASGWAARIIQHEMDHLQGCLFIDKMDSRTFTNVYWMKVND
Procedure: High controls consisted of 1% DMSO (v/v). […] The deformylation reaction mixture was incubated for one hour at room temperature. A separate set of plates containing 3 μL of fluorescamine at 1 mg/mL in 100% DMSO was prepared for the labeling step. Then, 17 μL of the reaction mixture from the original set of plates was transferred to the plates containing the fluorescamine solution for the labeling step. The readout was performed on a Perkin Elmer VICTOR^3 V™ Multi label counter, using an excitation wavelength of 355 nm, and an emission wavelength of 460 nm. […] Compounds inducing a variation of fluorescence greater than 20% were flagged as optically active compounds.
High controls consisted of 1% DMSO (v/v). […] The deformylation reaction mixture was incubated for one hour at room temperature. A separate set of plates containing 3 μL of fluorescamine at 1 mg/mL in 100% DMSO was prepared for the labeling step. Then, 17 μL of the reaction mixture from the original set of plates was transferred to the plates containing the fluorescamine solution for the labeling step. The readout was performed on a Perkin Elmer VICTOR3 V™ Multi label counter, using an excitation wavelength of 355 nm, and an emission wavelength of 460 nm.

[2] = In vivo toxicity of benzofuran-4,5-diones; details: i.p. twice a day for four days, 1 to 10 mg/kg, monitored 14 days
Procedure: Lead compound SKC-BF-13 and another newly synthesized derivative SKC-BF-02 were selected in order to assess the in vivo toxicity of benzofuran-4,5-diones. Three mice per group were treated with BF-13 at three doses (i.e., 1, 5 and 10 mg/kg) or with SKC-BF-02 at two doses (i.e., 1 and 10 mg/kg). A control group of two mice were treated with the vehicle (i.e., 20% DMSO v/v). Mice were treated twice a day for four days via intraperitoneal administration. Their weight was monitored along with any other signs of toxicity for fourteen days.
ICR/SCID male mice about three weeks old were used in this study. Three mice per group were treated with BF-13 at three doses (i.e., 1, 5 and 10 mg/kg) or with SKC-BF-02 at two doses (i.e., 1 and 10 mg/kg). A control group of two mice were treated with the vehicle (20% DMSO v/v). Mice were treated twice a day for four days via intraperitoneal administration. Their weight was monitored as well as any other sign of toxicity for 14 days.
SKI 396848 (SKC-BF-12) and SKI 396840 (SKC-BF-02) were synthesized during the first round of exploratory chemistry to assess the in vivo toxicity of benzofuran-4,5-diones (as shown in FIG. 8). Three ICR/SCID male mice per group were treated with SKI 396848 at three doses: 1, 5 and 10 mg/kg or with SKI 396840 at two doses: 1 and 10 mg/kg. A control group of two mice was treated with the vehicle (20% DMSO v/v). Mice were treated twice a day for four days i.p. Their weight was monitored as well as any other sign of toxicity for 14 days. One treated mouse per group was evaluated by a pathologist.

[3] = target: T1, HsPDF; assay: FP binding assay (fluorescence polarization, probe SKI 267088), specificity profiling and dose response
Procedure: Specificity profiling was performed on the newly synthesized benzofuran-4,5-diones using the aforementioned FP profiling method (Antczak et al., J. Biomol. Screen 2008, 13, 285-294).
Compounds or high/low controls were added to the wells at a volume of 2 μL. […] High controls consisted of 1% DMSO (v/v). MBP-HsPDF or the metalloprotease to be tested was diluted in the assay buffer (25 mM Hepes, 50 mM NaCl, 0.005% Tween 20, pH 7.5), and 10 μL where added to the 384-well microplates (Low Volume Round Bottom NBS Treated, Corning) to achieve a final concentration of 1 μM. After addition of MBP-HsPDF to the tested compounds, the 384-well microplates were preincubated for one hour at room temperature. Then 8 μL of the probe SKI 267088 in solution in assay buffer was added to the wells at a final concentration of 5 nM. After one hour incubation at room temperature, the fluorescence polarization was read using the Amersham LEADseeker™ Multimodality Imaging System equipped with Cy3 excitation/emission filters and Cy3 FP epi-mirror. Quench tests were performed in duplicate by measuring the fluorescence polarization of wells containing the probe, pre- and post-addition of the compounds at 100 μM.
In each assay, the signal inhibition induced by the compounds was expressed as a percentage compared to high and low controls located on the same plate, as defined as % Inhibition=(high control average−read value)/(high control average−low control average)×100. The dose response was assessed in duplicate and using 12 point doubling dilutions with 100 μM compound concentration as the upper limit. The dose response curve for each set of data was fitted separately, and the two IC50 values obtained were averaged.

[4] = test system: EcPDF
Procedure: Head of the field: EcPDF %I 100uM
(§4) Specificity profiling of the derivatives of benzofuran-4,5-diones.
Where the first naming reader finds the target: head: EcPDF %I 100uM

[5] = test system: APN; assay: APN %I 100uM
Procedure: (§1) Table printed on a drawing sheet, Figure 5
Head of the field: APN %I 100uM
(§2) Footnotes: -26 124 % inhibition
(§3) The patent's description of the figure: FIG. 5.
Where the first naming reader finds the target: head: APN %I 100uM

[6] = test system: panel of eight cancer cell lines; assay: Cytotoxicity profiling of 26 second generation derivatives (Alamar Blue viability assay, nuclei count); type: cell-based, human
Procedure: Cytotoxicity profiling for the 26 newly synthesized benzofuran-4,5-diones derivatives was performed on a panel of eight cancer cell lines.
The cell lines HL-60 (human acute promyelocytic leukemia), Jurkat (human acute T cell leukemia), Molt3 (acute lymphoblastic leukemia), CWR22 (prostate carcinoma), K562 (human chronic myeloid leukemia lymphoblasts), and Y79 (human retinoblastoma) were obtained from the ATCC, and cultured following ATCC recommendations. The cell line HL-60/RV+ (a P-glycoprotein-overexpressing multi-drug resistant HL-60 variant selected by continuous exposure to vincristine) was described elsewhere (Weisburg J H, Roepe P D, Dzekunov S, Scheinberg D A: Intracellular pH and multidrug resistance regulate complement-mediated cytotoxicity of nucleated human cells. J Biol Chem 1999; 274:10877-10888). The cell line ALL-3 (acute lymphoblastic leukemia isolated from a patient treated at MSKCC and characterized as Philadelphia chromosome positive) was obtained from Dr. Mark Frattini (MSKCC). The viability assay we used in this study is based on the dye resazurin and commercially sold as Alamar Blue (O'Brien J, Wilson I, Orton T, Pognan F: Investigation of the Alamar Blue (resazurin) fluorescent dye for the assessment of mammalian cell cytotoxicity. Eur J Biochem 2000; 267:5421-5426). Cells were added in 45 μL medium to the pre-plated compounds in 5 μL of 1% DMSO (v/v). After 72 h incubation was added 5 μL Alamar Blue. […] Plates were then fixed and nuclei were stained using Hoechst for the nuclear count proliferation assay. Imaging for Hoechst staining of nuclei count were acquired with an IN Cell Analyzer 2000 epifluorescence automated microscope ([…]) (GE Healthcare, Piscataway, N.J.) equipped with a 4× objective, using D360/40 excitation filter (360 nm excitation peak; +/−40 nm bandpass), HQ535/50 emission filter (535 nm emission peak; +/−50 nm bandpass) and Q505LP dichroic, and exposing fields for 200 milliseconds in the blue channel. Image analysis was conducted with the IN Cell Developer 1.7 software (GE Healthcare) using custom-developed analysis modules. The analysis module used for nuclei count performs object segmentation in the blue channel to automatically define and count the number of nuclei. Data is reported as the sum of imaged nuclei.
In addition of the Alamar Blue viability assay readout, for the adherent cell lines of this panel (CWR22 and Meso47) we performed a direct nuclei count to assess the effect of the novel derivatives on cell proliferation.

[7] = test system: MMP-1; assay: MMP-1 %I 100uM
Procedure: as §1
Head of the field: MMP-1 %I 100uM
as §2, §3
Where the first naming reader finds the target: head: MMP-1 %I 100uM

[8] = test system: EcPDF; remark: listed apart in the source
Procedure: Head of the field: EcPDF %I 10uM
as §4
Where the first naming reader finds the target: head: EcPDF %I 10uM

IC50 [1]: 1800 nM
Compound: O=C1C(=O)c2c(C(=O)c3ccsc3)coc2C(Cl)=C1Cl [SKI 417512, 6,7-dichloro-3-(thiophene-3-carbonyl)benzofuran-4,5-dione]

IC50 [1]: 3400 nM
Compound: O=C1C(=O)c2c(C(=O)c3ccccc3)coc2C(Br)=C1Br [SKI 417508, 3-benzoyl-6,7-dibromobenzofuran-4,5-dione]

IC50 [1]: 2300 nM
Compound: O=C1C(=O)c2c(C(=O)c3ccc(C(=O)O)cc3)coc2C(Br)=C1Br [SKI 417518, 4-(6,7-dibromo-4,5-dioxo-4,5-dihydrobenzofuran-3-carbonyl)benzoic acid]

Compound: COc1ccc(C(=O)c2coc3c2C(=O)C(=O)C=C3)cc1 [SKC-BF-02, 3-(4-Methoxy-benzoyl)-benzofuran-4,5-dione]
signs of toxicity in vivo (weight and other signs) [2]: none of the treatments induced any sign of toxicity | signs of toxicity in vivo (weight and other signs) ([2]; listed as SKI 396840): None of the treatments were found to induce any signs of toxicity

Compound: O=C1C=Cc2occ(C(=O)c3ccccc3)c2C1=O [SKC-BF-01, 3-Benzoyl-benzofuran-4,5-dione]
IC50 ([3]; dose response, 12 point doubling dilutions, upper limit 100 μM): 59000 nM | selectivity for HsPDF in a panel of metalloproteases ([3]; panel HsPDF, EcPDF, APN and MMP-1): most selective HsPDF inhibitors | EcPDF %I 100uM [4]: 32 %I | APN %I 100uM [5]: 5 %I

IC50 [1]: 690 nM
Compound: O=C1C(=O)c2c(C(=O)c3ccc(C(=O)O)cc3)coc2C(Cl)=C1Cl [SKI 417519, 4-(6,7-dichloro-4,5-dioxo-4,5-dihydrobenzofuran-3-carbonyl)benzoic acid]
activity against the cell lines of the panel, second generation [6]: not active toward most of the cell lines tested

IC50 [1]: 620 nM
Compound: O=C(O)COc1ccc(C(=O)c2coc3c2C(=O)C(=O)C(Cl)=C3Cl)cc1 [SKI 417521, 2-(4-(6,7-dichloro-4,5-dioxo-4,5-dihydrobenzofuran-3-carbonyl)phenoxy)acetic acid]
activity against the cell lines of the panel, second generation [6]: not active toward most of the cell lines tested

Compound: COc1ccc(C(=O)c2coc3c2C(=O)C(=O)c2ccccc2-3)cc1 [SKC-NF-01, 3-(4-Methoxy-benzoyl)-naphtho[1,2-b]furan-4,5-dione]
activity toward HsPDF, FP assay ([3]; specificity profiling / dose response): inactive | EcPDF %I 100uM [4]: 23 %I | APN %I 100uM [5]: 22 %I | MMP-1 %I 100uM [7]: 27 %I | EcPDF %I 10uM [8]: 30 %I

IC50 [1]: 680 nM
Compound: O=C(O)COc1ccc(C(=O)c2coc3c2C(=O)C(=O)C(Br)=C3Br)cc1 [SKI 417520, 2-(4-(6,7-dibromo-4,5-dioxo-4,5-dihydrobenzofuran-3-carbonyl)phenoxy)acetic acid]
activity against the cell lines of the panel, second generation [6]: not active toward most of the cell lines tested

IC50 [1]: 1800 nM
Compound: O=C1C(=O)c2c(C(=O)c3ccc(-n4ccnc4)cc3)coc2C(Br)=C1Br [SKI 417499, 3-(4-(1H-imidazol-1-yl)benzoyl)-6,7-dibromobenzofuran-4,5-dione]

IC50 [1]: 2300 nM
Compound: O=C1C(=O)c2c(C(=O)c3ccc4c(c3)OCCO4)coc2C(Br)=C1Br [SKI 417504, 6,7-dibromo-3-(2,3-dihydrobenzo[b][1,4]dioxine-6-carbonyl)benzofuran-4,5-dione]
